Data: patent US12677825B2, “Composition for protecting islet transplantation” (LG CHEM, LTD., priority 2020, dated 2026)

Legend:
[1] = tested on: islet grafts in STZ-induced diabetic hIAPP+/− FVB/N mice; test: Amyloid accumulation in islet grafts (thioflavin S staining); assay type: in vivo, mouse; details: islets cultured 72 hours with Compound 1, vs control group; FIG. 7G
Procedure: A marginal mass renal subcapsular islet transplantation model was used to assess the in vivo islet function of hIAPP^+/− mice. To induce diabetes, 180 mg/kg of streptozotocin (STZ, Sigma-Aldrich) was administered to 8- to 10-week-old FVB/N mice. Mice were considered to have diabetes when two consecutive blood glucose level readings were higher than 300 mg/dL. Equal amounts (400 IEQ of islets per recipient) of islets isolated from hIAPP^+/− mice were allocated to the following two groups: culture medium supplemented with 0.625% BSA (BSA group) and 0.625% BSA plus Compound 1 (BSA+Compound 1 group) to evaluate the combined effect of Compound 1 on islet mass and function during ex vivo culture. After culture for 72 hours, islets were transplanted into the renal subscapular space of diabetic hIAPP^+/− mice. The IE number was calculated using the Ricordi algorithm by classifying islets according to their diameter. After islet transplantation, non-fasting blood glucose levels were measured three times a week for the first 2 weeks and twice a week for the last 2 weeks. […]

[2] = tested on: TNF-α, IL-1β, IL-6, c-JUN and HMGB1; test: Real-time qRT-PCR transcript levels during serum-deprived ex vivo culture; assay type: cell-based, mouse; details: after 1 and 3 days of ex vivo culture, BSA+Compound 1 vs BSA group; FIGS. 6C, 6D
Procedure: Purified hIAPP^+/− FVB/N and C57BL/6J mouse were suspended in RPMI 1640 (Gibco, Grand Island, NY, USA) containing 100 IU/mL penicillin and 100 μg/mL streptomycin, and cultured at 37° C. in a fully humidified 5% CO2 atmosphere. Purified NHP islets were suspended in CMRL 1066 medium (Coming Life Sciences, Tewksbury, MA; catalog number 99-663-CV) containing 100 IU/mL penicillin and 100 μg/mL streptomycin, and cultured at 37° C. in a fully humidified 5% CO2 atmosphere. […]
Harvested islets were treated with 500 μL Trizol (Life Technologies, Grand Island, NY, USA), and then 100 μL of chloroform was added. […] RNA purity was assessed by NanoDrop (Thermo Scientific, Wilmington, DE, USA) and agarose gel electrophoresis. […] Total RNA was reverse transcribed to quantify the expression of genes using the SuperScript™ II reverse transcription system (Life Technologies) according to the manufacturer's protocol.
Real-time qRT-PCR was performed using gene-specific primer pairs (Table 1). […] To quantify the expression level of genes, real-time PCR was performed using a SYBR premix kit (Takara Bio Inc., Tokyo, Japan) and an ABI Prism 7000 (Applied Biosystems, Foster City, CA, USA) according to the manufacturers' protocols.

[3] = tested on: STZ-induced diabetic hIAPP+/− FVB/N mice; test: Marginal mass islet transplantation after serum-deprived culture with or without Compound 1; assay type: in vivo, mouse
Procedure: A marginal mass renal subcapsular islet transplantation model was used to assess the in vivo islet function of hIAPP^+/− mice. To induce diabetes, 180 mg/kg of streptozotocin (STZ, Sigma-Aldrich) was administered to 8- to 10-week-old FVB/N mice. Mice were considered to have diabetes when two consecutive blood glucose level readings were higher than 300 mg/dL. Equal amounts (400 IEQ of islets per recipient) of islets isolated from hIAPP^+/− mice were allocated to the following two groups: culture medium supplemented with 0.625% BSA (BSA group) and 0.625% BSA plus Compound 1 (BSA+Compound 1 group) to evaluate the combined effect of Compound 1 on islet mass and function during ex vivo culture. After culture for 72 hours, islets were transplanted into the renal subscapular space of diabetic hIAPP^+/− mice. The IE number was calculated using the Ricordi algorithm by classifying islets according to their diameter. After islet transplantation, non-fasting blood glucose levels were measured three times a week for the first 2 weeks and twice a week for the last 2 weeks.
At 4 weeks after transplantation, the transplantation site on the kidney of mouse were removed and embedded in paraffin. Immunohistochemical staining is briefly explained in the following. After deparaffinization, 4-μm tissue sections were stained with the polyclonal guinea pig anti-insulin antibody (1:1000, A0546, DAKO, Denmark), glucacon (1:500, ab92517, abcam, United Kingdom) and amyloid (1:2500, #44-344, Invitrogen). Stained slides were observed using an Olympus BX40 light microscope (Olympus, Japan) with […] numeric aperture and ×40/0.75 numeric aperture objectives. Photographic images were collected with a digital camera (Olympus DP50) and analyzed using the Image-Pro Plus 5.1 software.
For quantification of the DAB-labeled β-cells, all slides were imaged at 10× on a Vectra 3.0 automated quantitative pathology imaging system and analyzed using inForm software (all from Perkin-Elmer, Waltham, MA, USA). The transplanted renal tissue sections were scanned for image acquisition and then to set the transplanted tissue segmentation, a number of representative regions of transplanted islet cells and regions to be excluded from the analysis such as renal tissues were examined by learn-by-example interface. For the β-cell segmentation, a spectral library was used to identify the hematoxylin-stained nuclei and the DAB-stained cytoplasm (β-cells) within the transplanted tissue. With these training sets, the algorithm for identifying only the DAB-stained cells in the transplanted tissue was verified. All the captured 10× images were analyzed, and the DAB-stained transplanted β-cells were counted.

O=S1(=O)CCN(Cc2cc(NC3CCOCC3)c3[nH]c(-c4ccccc4)cc3c2)CC1 [Compound 1]
proportion of accumulation of amyloid in sections of islet grafts [1]: significantly reduced | transcript levels of TNF-α, IL-1β, IL-6, c-JUN and HMGB1 [2]: significantly attenuated | insulin positive area in the grafted tissue ([3]; islets cultured 72 hours with Compound 1, vs control group, FIG. 7F): greater | posttransplant glucose levels ([3]; islets cultured 72 hours with Compound 1, vs control, FIG. 7B): significantly better | diabetes reversal rate ([3]; islets cultured 72 hours with Compound 1, vs control, FIG. 7C): significantly better | glucose levels during IPGTT ([3]; islets cultured 72 hours with Compound 1, vs control, FIG. 7D): significantly better | AUC of glucose during IPGTT ([3]; islets cultured 72 hours with Compound 1, vs control, FIG. 7E): significantly better
